Key:
Format in all cases: in vivo
[1] = system: squares of grass; assay: Outdoor assays with benzyl alcohol used alone
Experimental: The outdoor assays were carried out on squares of grass having a surface area of 1 m^2. The application of the product is carried out with a compression sprayer which makes it possible to spray 20 to 100 g liquid over a surface area of 1 m^2 (equivalent to 200-1000 L/Ha).
The treated squares of grass are sprayed with a total quantity of water and pure benzyl alcohol (PanReac AppliChem—ITW Reagents) of 20 g (equivalent 200 l/Ha) including 0.5 g benzyl alcohol (equivalent to 5 L/Ha pure benzyl alcohol).
The control squares of grass receive a total quantity of 20 g water alone.
The following measurements and evaluations were carried out: • Percentage of the surface area affected: Following the assays in pots, it was noted that the change in colour correlated with the collapsing and the death of the plants. The time necessary to impact the colour of the grass as well as its surface area was evaluated. • Measurement of the collapsing of the grass: the distance between the ground and the highest part of 10 blades of grass selected at random in a square is measured. The average of these 10 blades is calculated and, after treatment, when this average distance is reduced by 30%, the collapsing time is determined.
Assay no. 2 was carried out under the same conditions as assay no. 1, except that the treated squares of grass are sprayed with a total quantity of water and benzyl alcohol of 60 g (equivalent 600 L/Ha) including 5 g pure benzyl alcohol (equivalent to 50 L/Ha pure benzyl alcohol).
Assay no. 3 was carried out under the same conditions as assay no. 1, except that the treated squares of grass are sprayed with a total quantity of 20 g pure benzyl alcohol (equivalent to 200 L/Ha pure benzyl alcohol).
Assay no. 4 was carried out under the same conditions as assay no. 1, except that the treated squares of grass are sprayed with a total quantity of water and benzyl alcohol of 60 g (equivalent 600 L/Ha) including 40 g pure benzyl alcohol (equivalent to 400 L/Ha pure benzyl alcohol).
Assay no. 5 was carried out under the same conditions as assay no. 1, except that the treated squares of grass are sprayed with a total quantity of water and benzyl alcohol of 100 g (equivalent 1000 L/Ha) including 60 g pure benzyl alcohol (equivalent to 600 L/Ha pure benzyl alcohol).
Assay no. 6 was carried out under the same conditions as assay no. 1, except that the treated squares of grass are sprayed with a total quantity of 80 g pure benzyl alcohol (equivalent to 800 L/Ha pure benzyl alcohol).

[2] = system: White petunia; assay: Foliar application (spraying) on potted plants; settings: 0.1 g benzyl alcohol (5 L/Ha) in 6 g total (300 L/Ha)
Experimental: (§1) Assays were carried out on different plants by foliar application (spraying) to evaluate the herbicide function, its foliar application mode and its speed of action.
(§2) The assays were carried out on potted plants. The application of the product is carried out with a trigger spray bottle which makes it possible to spray 1 g of product per spraying as microdroplets.
(§3) The plants were sprinkled with different quantities of water containing different quantities of pure benzyl alcohol (PanReac AppliChem—ITW Reagents). The untreated (control) plants are sprinkled with the same total quantity, but of water only.
(§4) The collapsing of the plant, the colour intensity of the plant and the diameter of the plant were measured in the following manner: • Collapsing of the plant: the collapsing was evaluated on a scale of 1 to 5. A score of 5 corresponds to the state of the plant habit at T0 and 1 corresponds to a total collapsing of the plant. • Colour intensity: the colour of the plant (leaves and flowers) is evaluated on a scale of 1 to 5. A score of 5 corresponds to the colour intensity of the plant at T0 and a score of 1 corresponds to a total discoloration of the plant (white or brown according to the type of plant). • Diameter of the plant: the diameter of the plant corresponds to the surface area occupied by the plant seen from above and is evaluated by a score of 1 to 5. A score of 5 corresponds to the diameter of the plant at T0 and a score of 1 corresponds to the size of the pot (or smaller than this).

[3] = system: Sage; assay: Foliar application (spraying) on potted plants; settings: 4 g benzyl alcohol (200 L/Ha) in 10 g total (500 L/Ha)
Experimental: as §1, §2, §3, §4

[4] = system: Pink petunia; assay: Foliar application (spraying) on potted plants; settings: 0.4 g benzyl alcohol (20 L/Ha) in 4 g total (200 L/ha)
Experimental: as §1, §2, §3, §4

[5] = system: Purple horned pansy; assay: Foliar application (spraying) on potted plants; settings: 1 g benzyl alcohol (50 L/Ha) in 12 g total (600 L/Ha)
Experimental: as §1, §2, §3, §4

[6] = system: Ivy; assay: Foliar application (spraying) on potted plants; settings: 16 g benzyl alcohol (800 L/Ha) in 20 g total (1000 L/Ha)
Experimental: as §1, §2, §3, §4

[7] = system: Carnation; assay: Foliar application (spraying) on potted plants; settings: 8 g benzyl alcohol (400 L/Ha) in 16 g total (800 L/ha)
Experimental: as §1, §2, §3, §4

[8] = system: Mustard; assay: Early post-emergence herbicide activity, visual rating of symptoms; settings: cotyledon stage, average of 5 pots
Source text: The soil is composed of 50% agricultural soil and 50% vermiculite.
Mustard seeds are sown in a Petri dish up to the stage of emergence of the radicle. The pre-germinated seeds are placed 1 cm deep in 8 cm×8 cm pots at a rate of 5 seeds per pot and 5 pots/repetitions per condition (treated plants and control plants).
On appearance of the cotyledons, the treatment is applied using a spraying bench simulating an outdoor treatment.
The spraying volume of 200 L/ha.
An untreated control (water alone) is added.
The cultivation conditions are 15° C. during the night/20° C. during the day with a photoperiod of 14 hours (light intensity of approximately 300 μmol/s/m^2).
A visual rating of the symptoms at 1, 3 and 7 days after treatment is carried out for the treated plants.
Each value is an average value calculated over 5 pots per condition.

OCc1ccccc1 [benzyl alcohol]
Collapsing of the grass: time after treatment to average collapsing of 30% ([1]; Assay no. 1: 1 m2 grass outdoors, 0.5 g benzyl alcohol (5 L/Ha) in 20 g total (200 l/Ha)): 72 h
Maximum percentage of the surface area affected ([1]; Assay no. 1: 1 m2 grass outdoors, 0.5 g benzyl alcohol (5 L/Ha) in 20 g total (200 l/Ha), observed 96 h after treatment): 45%
Collapsing of the grass: time after treatment to average collapsing of 30% ([1]; Assay no. 2: 1 m2 grass outdoors, 5 g benzyl alcohol (50 L/Ha) in 60 g total (600 L/Ha)): 48 h
Maximum percentage of the surface area affected ([1]; Assay no. 2: 1 m2 grass outdoors, 5 g benzyl alcohol (50 L/Ha) in 60 g total (600 L/Ha), observed 72 h after treatment): 60%
Collapsing of the grass: time after treatment to average collapsing of 30% ([1]; Assay no. 3: 1 m2 grass outdoors, 20 g pure benzyl alcohol (200 L/Ha)): 48 h
Maximum percentage of the surface area affected ([1]; Assay no. 3: 1 m2 grass outdoors, 20 g pure benzyl alcohol (200 L/Ha), observed 48 h after treatment): 80%
Collapsing of the grass: time after treatment to average collapsing of 30% ([1]; Assay no. 4: 1 m2 grass outdoors, 40 g benzyl alcohol (400 L/Ha) in 60 g total (600 L/Ha)): 24 h
Maximum percentage of the surface area affected ([1]; Assay no. 4: 1 m2 grass outdoors, 40 g benzyl alcohol (400 L/Ha) in 60 g total (600 L/Ha), observed 24 h after treatment): 100%
Collapsing of the grass: time after treatment to average collapsing of 30% ([1]; Assay no. 5: 1 m2 grass outdoors, 60 g benzyl alcohol (600 L/Ha) in 100 g total (1000 L/Ha)): 6 h
Maximum percentage of the surface area affected ([1]; Assay no. 5: 1 m2 grass outdoors, 60 g benzyl alcohol (600 L/Ha) in 100 g total (1000 L/Ha), observed 24 h after treatment): 100%
Collapsing of the grass: time after treatment to average collapsing of 30% ([1]; Assay no. 6: 1 m2 grass outdoors, 80 g pure benzyl alcohol (800 L/Ha)): 6 h
Maximum percentage of the surface area affected ([1]; Assay no. 6: 1 m2 grass outdoors, 80 g pure benzyl alcohol (800 L/Ha), observed 6 h after treatment): 100%
Collapsing of treated plant (score and time): time to pass from score 5 (T0) to score 1 [2]: 1 to 96 h
Colour intensity of treated plant (score and time): time to pass from score 5 (T0) to score 1 [2]: 1 to 96 h
Diameter of treated plant (score and time): time to pass from score 5 (T0) to score 1 [2]: 1 to 120 h
Collapsing of treated plant (score and time): time to pass from score 5 (T0) to score 1 [3]: 1 to 48 h
Colour intensity of treated plant (score and time): time to pass from score 5 (T0) to score 1 [3]: 1 to 24 h
Diameter of treated plant (score and time): time to pass from score 5 (T0) to score 1 [3]: 1 to 48 h
Collapsing of treated plant (score and time): time to pass from score 5 (T0) to score 1 [4]: 1 to 72 h
Colour intensity of treated plant (score and time): time to pass from score 5 (T0) to score 1 [4]: 1 to 48 h
Diameter of treated plant (score and time): time to pass from score 5 (T0) to score 1 [4]: 1 to 96 h
Collapsing of treated plant (score and time): time to pass from score 5 (T0) to score 1 [5]: 1 to 48 h
Colour intensity of treated plant (score and time): time to pass from score 5 (T0) to score 1 [5]: 1 to 24 h
Diameter of treated plant (score and time): time to pass from score 5 (T0) to score 1 [5]: 1 to 48 h
Collapsing of treated plant (score and time): time to pass from score 5 (T0) to score 1 [6]: 1 to 96 h
Colour intensity of treated plant (score and time): time to pass from score 5 (T0) to score 1 [6]: 1 to 48 h
Diameter of treated plant (score and time): time to pass from score 5 (T0) to score 1 [6]: 1 to 96 h
Collapsing of treated plant (score and time): time to pass from score 5 (T0) to score 1 [7]: 1 to 24 h
Colour intensity of treated plant (score and time): time to pass from score 5 (T0) to score 1 [7]: 1 to 24 h
Diameter of treated plant (score and time): time to pass from score 5 (T0) to score 1 [7]: 1 to 48 h
Visual rating of the symptoms (0 = similar to control, 100 = dead plant) ([8]; 30 L/ha active material, 1 day after treatment): 3
Visual rating of the symptoms (0 = similar to control, 100 = dead plant) ([8]; 30 L/ha active material, 3 days after treatment): 21
Visual rating of the symptoms (0 = similar to control, 100 = dead plant) ([8]; 30 L/ha active material, 7 days after treatment): 81
Visual rating of the symptoms (0 = similar to control, 100 = dead plant) ([8]; 40 L/ha active material, 1 day after treatment): 59
Visual rating of the symptoms (0 = similar to control, 100 = dead plant) ([8]; 40 L/ha active material, 3 days after treatment): 82
Visual rating of the symptoms (0 = similar to control, 100 = dead plant) ([8]; 40 L/ha active material, 7 days after treatment): 93
Visual rating of the symptoms (0 = similar to control, 100 = dead plant) ([8]; 60 L/ha active material, 1 day after treatment): 63
Visual rating of the symptoms (0 = similar to control, 100 = dead plant) ([8]; 60 L/ha active material, 3 days after treatment): 92
Visual rating of the symptoms (0 = similar to control, 100 = dead plant) ([8]; 60 L/ha active material, 7 days after treatment): 100

— patent US20220338473A1, “USE OF BENZYL ALCOHOL AS A HERBICIDE” (INNOVI, priority 2019, published 2022)
